In patent publication US20190299005A1, “VAGUS NERVE STIMULATION AND MONITORING” (priority 2018, published 2019):
“Also recorded” adds a separate entry of the source. Structures can show the parent of a compound that is named as a salt.

Key:
[1] = system: individual single vagal fibers (mesenteric nerve bundle of jejunal segment); experiment: Ex vivo vagal nerve fiber recording from mice orally fed antidepressants, lumen perfused with buffer only; set-up: species or system BALB/c mice; conditions: fed in the drinking water for 14 days; fluoxetine 18, sertraline 6, bupropion 6 mg/kg per day
Experimental: The procedure described above in connection with Example 1 and 2 was repeated for the BALB/c mice orally fed with antidepressants fluoxetine (18 mg/kg per day), sertraline (6 mg/kg per day) and bupropion (WELLBUTRIN®) (6 mg/kg per day) in the drinking water for 14 days. Following the oral treatment, the mice were sacrificed and a jejunal segment with mesenteric tissue was recovered as described in Example 1. In this example, the lumens of the jejunal segments were, however, perfused only with KREPS buffer.
FIG. 16 illustrates the mean interval between spike firing, i.e., average inter-pulse durations, for luminal Krebs control, i.e., from control mice that have not been treated with any antidepressants, and for mice fed with fluoxetine, sertraline or bupropion (WELLBUTRIN®).

[2] = system: BALB/c mice (depressive-like behavior); experiment: Tail Suspension Test (TST) after oral treatment, intact and vagotomized mice; format: in vivo; conditions: for effect on depressive and anxiety behavior in vagotomized mice: sub-diaphragmatic vagotomy prior to oral administration; for dependency of the effect on the vagus nerve: vagotomized mice compared to mice with an intact vagus nerve; for depressive and anxiety behavior in mice: oral administration, intact vagus nerve
Experimental: BALB/c mice were orally fed antidepressants fluoxetine (18 mg/kg per day), sertraline (6 mg/kg per day) and bupropion (WELLBUTRIN®) (6 mg/kg per day) in the drinking water for 14 days, or JB-1 (2.5-4×10^9 bacteria/day) in the drinking water for 28 days.
1 day following oral treatments with the antidepressants, the BALB/c mice were tested for depressive-like behavior with the tail suspension test. Mice were removed from the colony room and moved to a behavioral testing room where they were allowed to habituate for 30 min. Following this period, mice were suspended by the tail using laboratory tape measured to 17 cm (Can et al., Journal of Visualized Experiments 59: e3769, 2012) from a suspension bar in a position whereby they could not escape or hold on to any surfaces. 2 cm of tape was affixed to the mouse tail with the remaining 15 cm used for suspension of the mouse. Animals were left suspended for a period of 6 mins. Animal behavior was video recorded and scored by a blinded observer for freezing behavior. Freezing was calculated as a percentage of total time. Following behavioral testing mice were returned to the housing room and resumed oral treatments for the duration of the study.
The Tail Suspension Test is a simple screening test for the behavioral effects of antianxiety agents and antidepressants in rodents. This test assesses the inter-individual differences in responses to stressful situations measured by duration of immobility.

[3] = system: individual single vagal fibers (mesenteric nerve bundle of jejunal segment); experiment: Ex vivo vagal nerve fiber recording, test substance in lumen of jejunal segment, post hoc single unit burst analysis; set-up: species or system BALB/c mice; conditions: for Average inter-pulse duration, lower 95% CI / Average inter-pulse duration, upper 95% CI / Burst duration, lower 95% CI / Burst duration, upper 95% CI / Inter-burst duration, lower 95% CI / Inter-burst duration, upper 95% CI / Inter-pulse duration within bursts, lower 95% CI / Inter-pulse duration within bursts, upper 95% CI: drug in lumen; for Fraction average inter-pulse duration / Fraction burst duration / Fraction inter-burst duration / Fraction inter-pulse duration within bursts: fractional change (treatment−control)/control; for Fraction average inter-pulse duration: luminal fluoxetine 30 μM, sertraline 10 μM, bupropion 10 μM, JB-1 10^9 cfu/mL, squalamine 10 μM; for Fraction burst duration / Fraction inter-burst duration / Fraction inter-pulse duration within bursts: same luminal concentrations
Experimental: Adult BALB/c mice were killed by cervical dislocation. Then a 2-3 cm long jejunal segment with attached mesenteric tissue was removed and the oral and anal ends of the jejunal segment were cannulated with plastic tubing, gently emptied of contents by perfusing the lumen with Krebs buffer using a 3 mL plastic syringe whose tip was inserted into the oral opening. The cleaned jejunal segment was placed into a polystyrene petri dish (Falcon 351006, 50 mm×9 mm, Corning, N.Y., USA) filled with Krebs buffer of the following composition (in mM): 118 NaCl, 4.8 KCl, 25 NaHCO3, 1.0 NaH2PO4, 1.2 MgSO4, 11.1 glucose, and 2.5 CaCl2) bubbled with carbogen (95% 02 and 5% 002). The bottom of the dish was previously lined 1-2 mm deep with cured silicone elastomer SYLGARD®, Dow Corning, MI, USA.
Next the mesenteric nerve bundle was isolated by careful dissection under a stereomicroscope (Leika) using pointed number 5 forceps (Fine Science Tools), and the dish and contents were transferred to an inverted microscope (Nikon).
The gut segment and attached mesenteric tissue was then pinned linearly, without stretching, from oral to anal in the dish by pushing fine insect pins through the adherent mesentery into the silicone elastomer SYLGARD®. The lumen was gravity perfused (1 ml/min) at room temperature (20-25° C.), with oxygenated Krebs buffer and using several Mariotti bottles (McCarthy, Science 80: 100, 1934) attached to a plastic manifold (World Precision Instruments, Sarasota, Fla., USA). The serosal compartment was separately perfused with pre-warmed (35° C.) Krebs buffer at 4 ml/min. 3 μM nicardipine hydrochloride was added to the latter Krebs buffer to paralyze the smooth muscle to isolate chemosensory afferent signals from motility-related vagal responses (Perez-Burgos et al., Am J Physiol Gastrointest Liver Physiol 304: G211-220, 2013).
The nerve bundle was gently sucked onto a glass pipette attached to a patch-clamp electrode holder (CV-7B; Molecular Devices, Sunnyvale, Calif.), and extracellular nerve recordings were performed using a Multi-Clamp 700B amplifier and Digidata 1440A signal converter (Molecular Devices). Electrical signals were bandpass-filtered at 0.1-2 kHz, sampled at 20 kHz, and stored on a personal computer running pClamp 10 software (Molecular Devices) for post hoc analysis. Constitutive multiunit electrical activity was always recorded from the mesenteric nerve bundle even when the lumen was perfused with only Krebs buffer. Baseline recordings with Krebs buffer in the lumen were performed for 15 min, after which the luminal perfusate was switched to one containing Krebs buffer with substances to be tested (fluoxetine 30 μM, sertraline 10 μM, bupropion (WELLBUTRIN®) 10 μM, Lactobacillus rhamnosus JB-1 10^9 cfu/mL, or squalamine 10 μM). Recording in the presence of test substances was performed for up to 40 min after which the luminal perfusate was again switched to Krebs buffer and recording continued for up to 30 min.
Single units representing discharge from individual single vagal fibers were discriminated and identified by their unique spike waveform shape and amplitude (Rong et al., J Physiol 560: 867-881, 2004) using Dataview computer software (Heitler, Journal of Undergraduate Neuroscience Education 6: A1-A7, 2007). Dataview uses principal component analysis to sort the recorded multiunit spikes into individual single unit categories according to shape and amplitude (Heitler, Journal of Neuroscience Methods 185: 151-164, 2009).
Control and treatment periods were identified from event markers inserted at the time of recording. Then, for each channel (color-coded unit), spike bursts were detected using the “Poisson surprise” method devised by Legéndy & Salcman (Legendy & Salcman, J Neurophysiol 53: 926-939, 1985). A surprise was defined as −log 10(p), where p is the probability of a set of events occurring this close together by chance. […]

[4] = system: patients with Parkinson's disease (PD) and severe constipation; conditions: cited from earlier work
[5] = system: vagal afferent; conditions: aged mice with reduced firing frequency; cited from earlier work
[6] = system: colonic motility; conditions: applied intraluminally in mice; cited from earlier work

Row | SMILES | effect on depressive and anxiety behavior in vagotomized mice [2] | dependency of the effect on the vagus nerve [2] | Average inter-pulse duration, lower 95% CI [3] [ms] | Average inter-pulse duration, upper 95% CI [3] [ms] | Burst duration, lower 95% CI [3] [ms] | Burst duration, upper 95% CI [3] [ms] | Inter-burst duration, lower 95% CI [3] [ms] | Inter-burst duration, upper 95% CI [3] [ms] | Inter-pulse duration within bursts, lower 95% CI [3] [ms] | Inter-pulse duration within bursts, upper 95% CI [3] [ms] | Fraction average inter-pulse duration [3] | Fraction burst duration [3] | Fraction inter-burst duration [3] | Fraction inter-pulse duration within bursts [3] | depressive and anxiety behavior in mice [2] | other results
1 | CC(NC(C)(C)C)C(=O)c1cccc(Cl)c1 (stereo not drawn) [Bupropion, bupropion] | present | not to be dependent on the vagus nerve | 896 | 1081 | 412 | 543 | 49779 | 66105 | 105 | 124 | 0.2919 | 0.1778 | 1.152 | 0.01576 | – | average inter-pulse durations as compared to control mice [1]: no difference
2 | CNCCC(Oc1ccc(C(F)(F)F)cc1)c1ccccc1 (stereo not drawn) [Fluoxetine, fluoxetine] | disappeared; also recorded: no effect | dependent on the vagus nerve | 612 | 983 | 510 | 771 | 11524 | 44175 | 101 | 138 | −0.3964 | 0.6424 | −0.1795 | 0.2705 | decreased | Inter-burst duration, lower 95% CI ([3]; listed as fluoxetine): 11 524 ms; Inter-burst duration, upper 95% CI ([3]; listed as fluoxetine): 44 175 ms
3 | CN[C@H]1CC[C@@H](c2ccc(Cl)c(Cl)c2)c2ccccc21 [Sertraline, sertraline] | disappeared | dependent on the vagus nerve; also recorded: same dependency of action | 386 | 614 | 516 | 676 | 16160 | 36270 | 87 | 110 | −0.1627 | 0.6184 | −0.1554 | 0.1936 | decreased | Inter-burst duration, lower 95% CI ([3]; listed as sertraline): 16 160 ms; Inter-burst duration, upper 95% CI ([3]; listed as sertraline): 36 270 ms
4 | CC(C)[C@@H](CC[C@@H](C)[C@H]1CC[C@H]2[C@@H]3[C@H](O)C[C@H]4C[C@@H](NCCCNCCCCN)CC[C@]4(C)[C@H]3CC[C@]12C)OS(=O)(=O)O [Squalamine, 3(3β,5α,7α,24R)-3-({3-[(4-aminobutyl)amino]propyl}amino)-7-hydroxycholestan-24-yl hydrogen sulfate] | – | – | 334 | 675 | 111 | 1954 | 11233 | 34229 | 98 | 136 | −0.183 | 0.6752 | −0.2957 | 0.1394 | – | relief of constipation ([4]; increasing dosage schedule, 50 patients): positive beneficial effects; neurological symptoms in PD patients like hallucinations, sleep and circadian rhythm disturbances ([4]; while patients were taking the drug): attenuated or prevented; vagal afferent firing frequency [5]: increases; Burst duration, lower 95% CI ([3]; listed as squalamine): 110 ms; Burst duration, upper 95% CI ([3]; listed as squalamine): 1 954 ms; Inter-burst duration, lower 95% CI ([3]; listed as squalamine): 11 233 ms; Inter-burst duration, upper 95% CI ([3]; listed as squalamine): 34 229 ms; Inter-pulse duration within bursts, upper 95% CI ([3]; listed as squalamine): 136 ms; vagus code compared with other antidepressants ([3]; squalamine 10 μM in lumen): almost identical vagus code as sertraline; age and loperamide-related dysmotility [6]: reversed; effects on colonic motility [6]: prokinetic effects
